Results published in publication PMC7181660, “A novel specific PERK activator reduces toxicity and extends survival in Huntington's disease models” (Scientific Reports, 2020).
Like-named read-outs stand apart in the source and are kept apart here.

Legend:
Test in all cases: biochemical
Type in all cases: biochemical
panel of 391 kinases [1] = target: panel of 391 kinases (Homo sapiens, UniProt P42345); conditions: kinase mTOR/FRAP1, compound at 1 µM, single dose in duplicates, 1 µM ATP
panel of 391 kinases [2] = target: panel of 391 kinases (Homo sapiens, UniProt P11362); conditions: FGFR1, MK-28 1 µM, ATP 1 µM
panel of 391 kinases [3] = target: panel of 391 kinases (Homo sapiens, UniProt P21709); conditions: EPHA1, MK-28 1 µM, ATP 1 µM
panel of 391 kinases [4] = target: panel of 391 kinases (Homo sapiens, UniProt O94921); conditions: CDK14/cyclin Y (PFTK1), MK-28 1 µM, ATP 1 µM
panel of 391 kinases [5] = target: panel of 391 kinases (Homo sapiens, UniProt P16234); conditions: PDGFRa, MK-28 1 µM, ATP 1 µM
panel of 391 kinases [6] = target: panel of 391 kinases (Homo sapiens, UniProt Q00526); conditions: MK-28 1 µM, ATP 1 µM; for remaining activity at 1 µM: read-out: % Enzyme Activity (relative to DMSO controls)
panel of 391 kinases [7] = target: panel of 391 kinases (Homo sapiens, UniProt Q8WXR4); conditions: MYO3b, MK-28 1 µM, ATP 1 µM
panel of 391 kinases [8] = target: panel of 391 kinases (Homo sapiens, UniProt Q99683); conditions: ASK1/MAP3K5, MK-28 1 µM, ATP 1 µM
panel of 391 kinases [9] = target: T1, panel of 391 kinases (Homo sapiens, UniProt Q9NZJ5)
T1 sequence (Q9NZJ5 30-1116): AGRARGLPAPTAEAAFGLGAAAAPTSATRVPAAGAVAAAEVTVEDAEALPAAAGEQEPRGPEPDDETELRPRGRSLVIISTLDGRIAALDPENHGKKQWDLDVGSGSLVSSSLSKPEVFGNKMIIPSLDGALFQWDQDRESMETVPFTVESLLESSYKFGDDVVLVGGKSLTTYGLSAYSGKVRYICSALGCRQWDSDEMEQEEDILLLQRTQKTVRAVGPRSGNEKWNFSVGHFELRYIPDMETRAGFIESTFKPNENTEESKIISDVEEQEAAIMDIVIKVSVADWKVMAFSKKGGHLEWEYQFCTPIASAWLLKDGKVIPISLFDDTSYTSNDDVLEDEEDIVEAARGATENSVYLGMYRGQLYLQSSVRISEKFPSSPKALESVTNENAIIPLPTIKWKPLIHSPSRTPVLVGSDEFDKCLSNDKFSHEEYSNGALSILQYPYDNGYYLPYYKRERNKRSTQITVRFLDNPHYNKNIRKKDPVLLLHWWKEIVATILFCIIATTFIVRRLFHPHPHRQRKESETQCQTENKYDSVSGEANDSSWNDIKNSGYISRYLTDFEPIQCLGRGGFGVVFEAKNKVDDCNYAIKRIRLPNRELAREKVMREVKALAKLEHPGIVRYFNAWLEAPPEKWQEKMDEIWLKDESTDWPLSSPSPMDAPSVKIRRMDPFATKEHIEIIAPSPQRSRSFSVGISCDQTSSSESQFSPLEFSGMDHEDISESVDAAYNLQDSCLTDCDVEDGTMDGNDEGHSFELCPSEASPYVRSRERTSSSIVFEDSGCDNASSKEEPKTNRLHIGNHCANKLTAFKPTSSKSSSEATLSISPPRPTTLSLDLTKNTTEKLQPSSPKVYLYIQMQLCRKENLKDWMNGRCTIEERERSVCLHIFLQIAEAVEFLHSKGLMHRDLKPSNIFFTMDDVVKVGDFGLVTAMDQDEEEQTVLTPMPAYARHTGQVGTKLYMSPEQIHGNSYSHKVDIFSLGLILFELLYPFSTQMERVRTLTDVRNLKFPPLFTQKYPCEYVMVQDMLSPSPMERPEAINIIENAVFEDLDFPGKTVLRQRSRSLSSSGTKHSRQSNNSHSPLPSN

panel of 391 kinases [10] = target: panel of 391 kinases (Homo sapiens, UniProt O75676); conditions: MSK2/RPS6KA4, MK-28 1 µM, ATP 1 µM
panel of 391 kinases [11] = target: panel of 391 kinases (Homo sapiens, UniProt P17948); conditions: FLT1/VEGFR1, MK-28 1 µM, ATP 1 µM
panel of 391 kinases [12] = target: panel of 391 kinases (Homo sapiens, UniProt Q8N5S9); conditions: CAMKK1, MK-28 1 µM, ATP 1 µM
panel of 391 kinases [13] = target: panel of 391 kinases (Homo sapiens, UniProt Q9NRH2); conditions: SNRK, MK-28 1 µM, ATP 1 µM
panel of 391 kinases [14] = target: panel of 391 kinases (Homo sapiens, UniProt Q5TCX8); conditions: MLK4, MK-28 1 µM, ATP 1 µM
panel of 391 kinases [15] = target: panel of 391 kinases (Homo sapiens, UniProt Q9BXA7); conditions: STK22D/TSSK1, MK-28 1 µM, ATP 1 µM
panel of 391 kinases [16] = target: panel of 391 kinases (Homo sapiens, UniProt P36888); conditions: FLT3, MK-28 1 µM, ATP 1 µM
panel of 391 kinases [17] = target: panel of 391 kinases (Homo sapiens, UniProt P05771); conditions: PKCb1, MK-28 1 µM, ATP 1 µM
[18] = read-out: % Enzyme Activity (relative to DMSO controls)

## CN(/N=C\c1ccc(O)c(O)c1)c1nc(-c2ccccc2)cc(-c2ccccc2)n1 [MK-28]
Panel of 391 kinases [1]
  % Enzyme Activity (relative to DMSO controls): 93.79%
Panel of 391 kinases [1]; [18]
  remaining activity at 1 µM: 94.4%
Panel of 391 kinases [2]
  % Enzyme Activity (relative to DMSO controls): 103.69%
Panel of 391 kinases [2]; [18]
  remaining activity at 1 µM: 105%
Panel of 391 kinases [3]
  % Enzyme Activity (relative to DMSO controls): 99.87%
Panel of 391 kinases [3]; [18]
  remaining activity at 1 µM: 102%
Panel of 391 kinases [4]
  % Enzyme Activity (relative to DMSO controls): 103.85%
Panel of 391 kinases [4]; [18]
  remaining activity at 1 µM: 105%
Panel of 391 kinases [5]
  % Enzyme Activity (relative to DMSO controls): 97.43%
Panel of 391 kinases [5]; [18]
  remaining activity at 1 µM: 97.7%
Panel of 391 kinases [6]; CDK3/cyclin E2
  % Enzyme Activity (relative to DMSO controls): 90.11%
  remaining activity at 1 µM: 92.8%
Panel of 391 kinases [6]; CDK3/cyclin E
  % Enzyme Activity (relative to DMSO controls): 101.82%
  remaining activity at 1 µM: 102%
Panel of 391 kinases [7]
  % Enzyme Activity (relative to DMSO controls): 107.45%
Panel of 391 kinases [7]; [18]
  remaining activity at 1 µM: 113%
Panel of 391 kinases [8]
  % Enzyme Activity (relative to DMSO controls): 97.76%
Panel of 391 kinases [8]; [18]
  remaining activity at 1 µM: 100%
Panel of 391 kinases [9]; 1 μM, duplicate, 391-kinase panel, read-out: PERK (EIF2AK3) activity, % of the control
  remaining activity at 1 µM: 181%
Panel of 391 kinases [9]; kinase EIF2AK3, compound at 1 µM, single dose in duplicates, 1 µM ATP
  % Enzyme Activity (relative to DMSO controls): 175.07%
Panel of 391 kinases [9]; kinase EIF2AK3, compound at 1 µM, single dose in duplicates, 1 µM ATP, read-out: % Enzyme Activity (relative to DMSO controls)
  remaining activity at 1 µM: 188%
Panel of 391 kinases [10]
  % Enzyme Activity (relative to DMSO controls): 94.82%
Panel of 391 kinases [10]; [18]
  remaining activity at 1 µM: 96.8%
Panel of 391 kinases [11]
  % Enzyme Activity (relative to DMSO controls): 84.43%
Panel of 391 kinases [11]; [18]
  remaining activity at 1 µM: 84.8%
Panel of 391 kinases [12]
  % Enzyme Activity (relative to DMSO controls): 101.88%
Panel of 391 kinases [12]; [18]
  remaining activity at 1 µM: 102%
Panel of 391 kinases [13]
  % Enzyme Activity (relative to DMSO controls): 99.62%
Panel of 391 kinases [13]; [18]
  remaining activity at 1 µM: 100%
Panel of 391 kinases [14]
  % Enzyme Activity (relative to DMSO controls): 96.53%
Panel of 391 kinases [14]; [18]
  remaining activity at 1 µM: 97.1%
Panel of 391 kinases [15]
  % Enzyme Activity (relative to DMSO controls): 91.99%
Panel of 391 kinases [15]; [18]
  remaining activity at 1 µM: 93.3%
Panel of 391 kinases [16]
  % Enzyme Activity (relative to DMSO controls): 95.61%
Panel of 391 kinases [16]; [18]
  remaining activity at 1 µM: 95.6%
Panel of 391 kinases [17]
  % Enzyme Activity (relative to DMSO controls): 108.67%
Panel of 391 kinases [17]; [18]
  remaining activity at 1 µM: 111%
